Here are results for 16 compounds from ChEMBL document CHEMBL1806452, “New salicylamide and sulfonamide derivatives of quinoxaline 1,4-di-N-oxide with antileishmanial and antimalarial activities” (Bioorg Med Chem Lett, 2011).

For orientation: IC50 means the point on the concentration scale where inhibition reaches its midpoint. Broadly, the CC50 is the concentration that lowers cell viability or growth by half. A high value points to better tolerance by the cells.

Series [1] concerns Leishmania amazonensis. Briefly: Leishmanicidal activity against axenic amastigotes of Leishmania amazonensis by MTT assay. It counts as functional, organism-based. (Formazan colour is commonly taken as a measure of viable cells.)
Series [2] deals with Leishmania amazonensis. Briefly: Ratio of amphotericin B IC50 to compound IC50 for axenic amastigotes of Leishmania amazonensis. It counts as functional.
The nature of series [3]: Cytotoxicity against mouse peritoneal macrophages after 48 hrs by trypan blue exclusion method. The class given is cell-based, Peritoneal macrophage cell.
Series [4] deals with Plasmodium falciparum. Kind of series: Ratio of chloroquine IC50 to compound IC50 for chloroquine-resistant Plasmodium falciparum FCR-3 infected in human erythrocytes. It counts as functional.
The test system of series [5] is Plasmodium falciparum. Kind of series: Antiplasmodial activity against chloroquine-resistant Plasmodium falciparum FCR-3 infected in human erythrocytes assessed as inhibition of [3H]hypoxanthine uptake after 48 hrs. It counts as functional, organism-based.
A short description of series [6]: Selectivity index, ratio of CC50 for mouse peritoneal macrophages to IC50 for axenic amastigotes of Leishmania amazonensis. It counts as functional.

On to `Cc1ccc2c(c1)[n+]([O-])c(C#N)c(NS(=O)(=O)c1ccc3ccccc3c1)[n+]2[O-]`, for which the figures for the IC50 with Leishmania amazonensis [1] and in the series with Plasmodium falciparum [5] were 16.3 µM and above 24.6 µM, respectively. In addition, the “Ratio IC50” value in the series with Leishmania amazonensis [2] is reported as 81.5; in the series with Plasmodium falciparum [4] it was above 82. Also, the CC50 at 48 h in series [3] was above 246 µM. Further, in series [6], the “Ratio CC50/IC50” value is above 15.1.

With `Cc1cc2c(cc1C)[n+]([O-])c(NS(=O)(=O)c1ccc3ccccc3c1)c(C#N)[n+]2[O-]`, the IC50 in the series with Leishmania amazonensis [1] was above 100 µM; with Plasmodium falciparum [5], above 23.8 µM. The “Ratio IC50” value in the series on Leishmania amazonensis [2] is above 100; in the series with Plasmodium falciparum [4] it was above 79.

Consider `N#Cc1c(NS(=O)(=O)c2ccccc2[N+](=O)[O-])[n+]([O-])c2ccc(Cl)cc2[n+]1[O-]`, for which the IC50 in the series with Leishmania amazonensis [1] stood at 3.1 µM; with Plasmodium falciparum [5], 17.4 µM. Moreover, the entries for the “Ratio IC50” value in the series on Leishmania amazonensis [2] and in the series with Plasmodium falciparum [4] were 15.5 and 58, respectively. In series [3], this compound yielded a CC50 at 48 h of 6.8 µM. The “Ratio CC50/IC50” value in series [6] is 2.2.

On to `N#Cc1c(NS(=O)(=O)c2ccc([N+](=O)[O-])cc2)[n+]([O-])c2ccc(Cl)cc2[n+]1[O-]`, for which the concentration for half-maximal inhibition (IC50) with Leishmania amazonensis [1] was 2.1 µM; with Plasmodium falciparum [5], above 23.7 µM. Also, the “Ratio IC50” value in the series with Leishmania amazonensis [2] is 10.5; with Plasmodium falciparum [4], above 79. In series [3], this compound registered a CC50 at 48 h of 7.9 µM. Moreover, the “Ratio CC50/IC50” value in series [6] came out at 3.8.

For `N#Cc1c(NS(=O)(=O)c2ccc([N+](=O)[O-])cc2)[n+]([O-])c2cc(Cl)c(Cl)cc2[n+]1[O-]`, the IC50 worked out at 15.9 µM with Leishmania amazonensis [1] and 18.7 µM with Plasmodium falciparum [5]. Also, the Ratio IC50 came to 79.5 in the series with Leishmania amazonensis [2] and 62 in the series with Plasmodium falciparum [4]. Further, half-maximal cytotoxicity in series [3] (CC50 at 48 h) was put at 89.1 µM. Moreover, in series [6], the “Ratio CC50/IC50” value is 5.6.

Regarding `N#Cc1c(NS(=O)(=O)c2ccc([N+](=O)[O-])cc2)[n+]([O-])c2ccccc2[n+]1[O-]`, the IC50 stood at 86.3 µM in the series on Leishmania amazonensis [1] and 20 µM with Plasmodium falciparum [5]. Also, the entries for the “Ratio IC50” value in the series on Leishmania amazonensis [2] and in the series on Plasmodium falciparum [4] were 430 and 67, respectively.

With `CC(=O)Oc1ccccc1C(=O)Nc1c(C#N)[n+]([O-])c2ccccc2[n+]1[O-]`, the IC50 in the series with Leishmania amazonensis [1] came to 112 µM; with Plasmodium falciparum [5], 41.4 µM. Besides, the “Ratio IC50” value in the series with Leishmania amazonensis [2] is on record as 559; in the series on Plasmodium falciparum [4] it was 138.

With `CC(=O)Oc1ccccc1C(=O)Nc1c(C#N)[n+]([O-])c2cc(Cl)ccc2[n+]1[O-]`, the IC50 with Leishmania amazonensis [1] was 33.6 µM; in the series on Plasmodium falciparum [5], 10.8 µM. The “Ratio IC50” value was 168 in the series with Leishmania amazonensis [2] and 36 with Plasmodium falciparum [4].

Turning to `CC(=O)Oc1ccccc1C(=O)Nc1c(C#N)[n+]([O-])c2cc(C)ccc2[n+]1[O-]`, the IC50 in the series with Leishmania amazonensis [1] came out at 18.8 µM; in the series with Plasmodium falciparum [5], 52.8 µM. The “Ratio IC50” value with Leishmania amazonensis [2] is 94; with Plasmodium falciparum [4] it was 176. Besides, the CC50 at 48 h in series [3] came to 21.7 µM. Further, the “Ratio CC50/IC50” value in series [6] was determined as 1.1.

For `COc1ccc2c(c1)[n+]([O-])c(C#N)c(NC(=O)c1ccccc1OC(C)=O)[n+]2[O-]`, the results for the 50% inhibitory concentration (IC50) in the series with Leishmania amazonensis [1] and in the series with Plasmodium falciparum [5] were 42.4 µM and 27 µM, respectively. For the same compound, the entries for the “Ratio IC50” value in the series with Leishmania amazonensis [2] and in the series on Plasmodium falciparum [4] were 212 and 90, respectively.

For the compound `CC(=O)Oc1ccccc1C(=O)Nc1c(C#N)[n+]([O-])c2cc(F)c(F)cc2[n+]1[O-]`, the figures for the concentration for half-maximal inhibition (IC50) in the series on Leishmania amazonensis [1] and in the series on Plasmodium falciparum [5] were 14.8 µM and 36 µM, respectively. Also, the “Ratio IC50” value with Leishmania amazonensis [2] was 74; in the series on Plasmodium falciparum [4] it was 120. In addition, in series [3], the CC50 at 48 h turned out to be 10.5 µM. The “Ratio CC50/IC50” value in series [6] is on record as 0.7.

On to `CC(=O)Oc1ccccc1C(=O)Nc1c(C#N)[n+]([O-])c2cc(C)c(C)cc2[n+]1[O-]`, for which the figures for the 50% inhibitory concentration (IC50) in the series on Leishmania amazonensis [1] and with Plasmodium falciparum [5] were 17.6 µM and 59.4 µM, respectively. The results for the “Ratio IC50” value in the series on Leishmania amazonensis [2] and with Plasmodium falciparum [4] were 88 and 198, respectively. Besides, in series [3], the CC50 at 48 h worked out at 12.5 µM. Moreover, the “Ratio CC50/IC50” value in series [6] was 0.7.

Regarding `CC(=O)Oc1ccccc1C(=O)Nc1c(C#N)[n+]([O-])c2cc(F)ccc2[n+]1[O-]`, the IC50 with Leishmania amazonensis [1] was 7.3 µM; in the series on Plasmodium falciparum [5] it was 7.4 µM. The entries for the “Ratio IC50” value in the series with Leishmania amazonensis [2] and in the series with Plasmodium falciparum [4] were 36.5 and 25, respectively. In series [3], the CC50 at 48 h is 13.6 µM. For the same compound, the “Ratio CC50/IC50” value in series [6] turned out to be 1.8.

As for `N#Cc1c(NS(=O)(=O)c2ccc3ccccc3c2)[n+]([O-])c2ccc(Cl)cc2[n+]1[O-]`, the half-inhibitory concentration (IC50) in the series with Leishmania amazonensis [1] is 20 µM; in the series with Plasmodium falciparum [5] it was above 23.4 µM. In addition, the “Ratio IC50” value in the series on Leishmania amazonensis [2] is on record as 100; in the series on Plasmodium falciparum [4], above 78. The compound further returned a cytotoxic concentration (CC50) at 48 h in series [3] of 88.6 µM. Also, the “Ratio CC50/IC50” value in series [6] is listed as 4.4.

As for `C[C@@H]1[C@H](O)[C@@H](C)/C=C/C=C/C=C/C=C/C=C/C=C/C=C/[C@H](O[C@@H]2O[C@H](C)[C@@H](O)[C@H](N)[C@@H]2O)C[C@@H]2O[C@](O)(C[C@@H](O)C[C@@H](O)[C@H](O)CC[C@@H](O)C[C@@H](O)CC(=O)O[C@H]1C)C[C@H](O)[C@H]2C(=O)O` [AMPHOTERICIN B], the “Ratio IC50” value in the series on Leishmania amazonensis [2] came to 1. It took 4.4 µM to reach half-maximal cytotoxicity in series [3] (CC50 at 48 h).

For the compound `CCN(CC)CCCC(C)Nc1ccnc2cc(Cl)ccc12` (stereo not drawn) [CHLOROQUINE], in the series with Leishmania amazonensis [1], half-maximal inhibition (IC50) was put at 20 µM. This compound also yielded a half-maximal cytotoxic concentration (CC50) at 48 h in series [3] of 88.6 µM.
